Assay results published in paper PMC9412875, “^64Cu-DOTHA2-PSMA, a Novel PSMA PET Radiotracer for Prostate Cancer with a Long Imaging Time Window” (Pharmaceuticals, 2022).

Assays:
[1] = Lipophilicity (log D), octanol/PBS partition; type: physicochemical; conditions: octanol / PBS pH 7.4, triplicate
Procedure: For log D measurements, 8 MBq of ^64Cu-DOTHA2-PSMA was added to a pre-saturated mixture of phosphate-buffered saline pH 7.4 (500 µL) and octanol (500 µL). Samples were shaken for 30 min at room temperature, centrifuged at 7000 rpm for 5 min, and 100 µL of each phase was counted using a Packard Cobra gamma counter. Experiments were performed in triplicate and the value was presented as log Dmean ± SD, where D was calculated as D = (Average of CPM in octanol / CPM in PBS).

[2] = system: LNCaP cells; assay: Cellular uptake and internalization assays; type: cell-based, human; conditions: for cellular uptake: n = 9
Procedure: Here, 12-well polylysine-coated Cellbind plates were seeded with 150 × 10^3 LNCaP cells with 1.75 mL of cell media. At 70–100% confluence (3 days of growth), the cell medium was changed and 37 kBq of ^64Cu-DOTHA2-PSMA in 1 mL of cell medium was added to each well of group 1 and 160 kBq to each of group 2.
Uptake and internalization assay cells were incubated for 15, 30, 45, 60 min, 2 h, 3 h, and 4 h in group 1 or 4 h, 8 h, 12 h, 24 h, 36 h, and 48 h in group 2 (3 wells per time point in all groups). Repetition of the 4 h time point was used to ensure reproducibility. After incubation, the medium was removed, and cells were washed with 1 mL of cold PBS. For the uptake assays, cells were directly treated with 1 mL of trypsin to be collected and their activity was assayed (HIDEX AMG Gamma Counter 425-601). For internalization assays, cells were incubated with 1 mL of acidic glycine (50 mM, pH = 2,8) for 5 min to remove membrane-bound ^64Cu-DOTHA2-PSMA, washed with 3 mL of cold PBS, and collected using 1 mL of trypsin to be measured in the gamma-counter. Uptake and internalization results were expressed as the percentage of activity injected in the well (IA) in functions of time, normalized to 10^6 cells.
All the assays were performed at least 3 times, each with different ^64Cu-DOTHA2-PSMA production and cell passage. Cells were counted in 3 wells for each protocol (uptake, internalization, and efflux) on day 1 and day 3 of each experiment and an average for cells numbers at day 2.

[3] = Balb/c mice biodistribution; type: in vivo
Procedure: ^64Cu-DOTHA2-PSMA biodistribution was assessed in balb/c mice (n = 30) by harvesting blood and organs at 1 h, 2 h, 4 h, 24 h, and 48 h p.i. to measure tissue radioactivity and weight. Results were reported as the %IA/g of tissue and compared with the radiotracer used for clinical imaging in our facility, ^68Ga-PSMA-617.
(§1) Balb/c mice (n = 30) were injected with a bolus of ^64Cu-DOTHA2-PSMA by the tail vein (in 0.3 mL of saline: 3 MBq for 1 h, 2 h, and 4 h p.i., 7.5 MBq for 24 h p.i. and 21 MBq for 48 h p.i.). Injected activity had to be increased for later time points to ensure reliable detection and reliability in organs with a low uptake, e.g., the brain. At all timepoints, blood was collected using a heparin-coated syringe by femoral vein puncture and mice were then euthanized and dissected. Harvested tissues were rinsed, blotted dry, and then weighted and counted in gamma counter. The results are reported as the %IA per gram of tissue. The biodistribution results were compared with the ^68Ga-PSMA-617 results obtained by our team at 1 h and 2 h p.i.

[4] = system: LNCaP tumor; assay: Tumor-bearing mice biodistribution after PET; type: in vivo, NRG mice; conditions: 24 h p.i.
Procedure: as §1
PET imaging of NRG mice and supplemental tumor-bearing mice were biodistributed 24 h p.i. as described for balb/c mice.

[5] = Blocked (n=4), co-injection of natCu-DOTHA2-PSMA

For `CN([O-])C(=O)CN1CCN(CC(=O)NCC2CCC(C(=O)NC(Cc3ccc4ccccc4c3)C(=O)NCCCCC(NC(=O)NC(CCC(=O)O)C(=O)O)C(=O)O)CC2)CCN(CC(=O)N(C)[O-])CCN(CC(=O)N(C)O)CC1.[64Cu+2]` (centres unmarked) [^64Cu-DOTHA2-PSMA], the “log D” value [1] was -0.96 ± 0.61, the cellular uptake ([2]; 30 min) was 22.0 ± 8.8 % IA/10^6 cells and the internalization ([2]; 2 h) was 12.2 ± 6.7 % IA/10^6 cells. The internalization ([2]; 48 h) was 34.1 ± 4.9 % IA/10^6 cells, the cellular uptake ([2]; 48 h) was 34.5 ± 13.6 % IA/10^6 cells and the “kidney uptake difference to 68Ga-PSMA-617 (lower)” value ([3]; 2 h p.i.) was 23.3%. The liver uptake ([3]; 2 h p.i.) was 29.9 ± 5.0 % IA/g, the “liver uptake (peak)” value ([3]; 4 h p.i.) was 30.2 ± 4.2 % IA/g and the “uptake in the kidneys (highest over time points)” value ([3]; up to 48 h p.i.) was “at most 15.8 ± 7.0 % IA/g”. For the same compound, the Adrenals uptake [4, 5] was 9.02 %IA/g, the Blood uptake [4, 5] was 1.91 %IA/g and the Bone uptake [4, 5] was 0.91 %IA/g. For the same compound, the Brain uptake [4, 5] was 0.38 %IA/g, the Fat uptake [4, 5] was 0.26 %IA/g and the Heart uptake [4, 5] was 3.00 %IA/g. For the same compound, the Intestin uptake [4, 5] was 8.53 %IA/g, the Kidneys uptake [4, 5] was 6.86 %IA/g and the LNCaP tumor uptake [4, 5] was 7.44 %IA/g. It also gave a Lungs uptake [4, 5] of 5.99 %IA/g, a Muscles uptake [4, 5] of 0.47 %IA/g and a Pancreas uptake [4, 5] of 2.09 %IA/g. It also gave a Plasma uptake [4, 5] of 2.54 %IA/g, a Salivary gl. uptake [4, 5] of 1.84 %IA/g and a Seminal gl. uptake [4, 5] of 0.59 %IA/g. It also gave a Skin uptake [4, 5] of 0.50 %IA/g, a Spleen uptake [4, 5] of 6.99 %IA/g and a Stomach uptake [4, 5] of 5.55 %IA/g. For the same compound, the Tail uptake [4, 5] was 1.36 %IA/g, the Testis uptake [4, 5] was 1.03 %IA/g and the Thyroid uptake [4, 5] was 1.33 %IA/g. It also gave a liver uptake [4, 5] of 15.15 %IA/g, an Adrenals uptake ([4]; Non-blocked (n=11)) of 4.70 %IA/g and a Blood uptake ([4]; Non-blocked (n=11)) of 3.46 %IA/g. For the same compound, the Bone uptake ([4]; Non-blocked (n=11)) was 2.38 %IA/g, the Brain uptake ([4]; Non-blocked (n=11)) was 0.75 %IA/g and the Fat uptake ([4]; Non-blocked (n=11)) was 0.63 %IA/g. The Heart uptake ([4]; Non-blocked (n=11)) was 5.20 %IA/g, the Intestin uptake ([4]; Non-blocked (n=11)) was 15.69 %IA/g and the Kidneys uptake ([4]; Non-blocked (n=11)) was 13.24 %IA/g. For the same compound, the LNCaP tumor uptake ([4]; Non-blocked (n=11)) was 17.33 %IA/g, the Lungs uptake ([4]; Non-blocked (n=11)) was 14.30 %IA/g and the Muscles uptake ([4]; Non-blocked (n=11)) was 1.10 %IA/g. It also gave a Pancreas uptake ([4]; Non-blocked (n=11)) of 2.80 %IA/g, a Plasma uptake ([4]; Non-blocked (n=11)) of 4.52 %IA/g and a Salivary gl. uptake ([4]; Non-blocked (n=11)) of 4.18 %IA/g. The Seminal gl. uptake ([4]; Non-blocked (n=11)) was 1.13 %IA/g, the Skin uptake ([4]; Non-blocked (n=11)) was 1.07 %IA/g and the Spleen uptake ([4]; Non-blocked (n=11)) was 10.10 %IA/g. For the same compound, the Stomach uptake ([4]; Non-blocked (n=11)) was 9.17 %IA/g, the Tail uptake ([4]; Non-blocked (n=11)) was 2.37 %IA/g and the Testis uptake ([4]; Non-blocked (n=11)) was 1.96 %IA/g. For the same compound, the Thyroid uptake ([4]; Non-blocked (n=11)) was 2.57 %IA/g and the liver uptake ([4]; Non-blocked (n=11)) was 28.54 %IA/g.
